Results reported in ChEMBL document CHEMBL3046147, “Synthesis and Herbicidal Activity of 1-Arylalkyl-3-pyrrolin-2-one Derivatives” (J Pestic Sci, 2000).
Active and inactive are the calls of the source. No cut-off for these calls is given here.

Tests used:
[1] = test system: Echinochloa oryzicola; experiment: Herbicidal activity against Echinochloa oryzicola grown in water-drained pot under greenhouse condition assessed as growth inhibition at 125 g /ha measured after 6 days; format: functional, organism-based
[2] = test system: Echinochloa oryzicola; experiment: Herbicidal activity against Echinochloa oryzicola under greenhouse condition assessed as growth inhibition at 500 g /ha measured after 33 days; format: functional, organism-based
[3] = test system: Echinochloa oryzicola; experiment: Herbicidal activity against Echinochloa oryzicola under greenhouse condition assessed as growth inhibition at 500 g /ha measured after 27 days; format: functional, organism-based
[4] = test system: Echinochloa oryzicola; experiment: Herbicidal activity against Echinochloa oryzicola grown in water-drained pot under greenhouse condition assessed as growth inhibition at 125 g /ha measured after 20 days; format: functional, organism-based
[5] = test system: Echinochloa oryzicola; experiment: Herbicidal activity against Echinochloa oryzicola under greenhouse condition assessed as growth inhibition at 125 g /ha measured after 42 days; format: functional, organism-based
[6] = test system: Echinochloa oryzicola; experiment: Herbicidal activity against Echinochloa oryzicola grown in water-drained pot under greenhouse condition assessed as growth inhibition at 500 g /ha measured after 42 days; format: functional, organism-based
[7] = test system: Echinochloa oryzicola; experiment: Herbicidal activity against Echinochloa oryzicola grown in water-drained pot under greenhouse condition assessed as growth inhibition at 125 g /ha measured after 42 days; format: functional, organism-based
[8] = test system: Echinochloa oryzicola; experiment: Herbicidal activity against Echinochloa oryzicola under greenhouse condition assessed as growth inhibition at 125 g /ha measured after 33 days; format: functional, organism-based
[9] = test system: Echinochloa oryzicola; experiment: Herbicidal activity against Echinochloa oryzicola grown in water-drained pot under greenhouse condition assessed as growth inhibition at 125 g /ha measured after 33 days; format: functional, organism-based
[10] = test system: Echinochloa oryzicola; experiment: Herbicidal activity against Echinochloa oryzicola under greenhouse condition assessed as growth inhibition at 125 g /ha measured after 6 days; format: functional, organism-based
[11] = test system: Echinochloa oryzicola; experiment: Herbicidal activity against Echinochloa oryzicola under greenhouse condition assessed as growth inhibition at 500 g /ha measured after 42 days; format: functional, organism-based
[12] = test system: Echinochloa oryzicola; experiment: Herbicidal activity against Echinochloa oryzicola under greenhouse condition assessed as growth inhibition at 500 g /ha measured after 20 days; format: functional, organism-based
[13] = test system: Echinochloa oryzicola; experiment: Herbicidal activity against Echinochloa oryzicola grown in water-drained pot under greenhouse condition assessed as growth inhibition at 500 g /ha measured after 13 days; format: functional, organism-based
[14] = test system: Echinochloa oryzicola; experiment: Herbicidal activity against Echinochloa oryzicola grown in water-drained pot under greenhouse condition assessed as growth inhibition at 500 g /ha measured after 20 days; format: functional, organism-based
[15] = test system: Echinochloa oryzicola; experiment: Herbicidal activity against Echinochloa oryzicola under greenhouse condition assessed as growth inhibition at 125 g /ha measured after 13 days; format: functional, organism-based
[16] = test system: Echinochloa oryzicola; experiment: Herbicidal activity against Echinochloa oryzicola under greenhouse condition assessed as growth inhibition at 125 g /ha measured after 20 days; format: functional, organism-based
[17] = test system: Echinochloa oryzicola; experiment: Herbicidal activity against Echinochloa oryzicola grown in water-drained pot under greenhouse condition assessed as growth inhibition at 125 g /ha measured after 13 days; format: functional, organism-based
[18] = test system: Echinochloa oryzicola; experiment: Herbicidal activity against Echinochloa oryzicola grown in water-drained pot under greenhouse condition assessed as growth inhibition at 500 g /ha measured after 27 days; format: functional, organism-based
[19] = test system: Echinochloa oryzicola; experiment: Herbicidal activity against Echinochloa oryzicola grown in water-drained pot under greenhouse condition assessed as time duration of residual effect at 125 g /ha; format: functional
[20] = test system: Echinochloa oryzicola; experiment: Herbicidal activity against Echinochloa oryzicola under greenhouse condition assessed as time duration of residual effect at 125 g /ha; format: functional
[21] = test system: Echinochloa oryzicola; experiment: Herbicidal activity against Echinochloa oryzicola under greenhouse condition assessed as growth inhibition at 500 g /ha measured after 6 days; format: functional, organism-based
[22] = test system: Echinochloa oryzicola; experiment: Herbicidal activity against Echinochloa oryzicola under greenhouse condition assessed as growth inhibition at 500 g /ha measured after 13 days; format: functional, organism-based
[23] = test system: Echinochloa oryzicola; experiment: Herbicidal activity against Echinochloa oryzicola grown in water-drained pot under greenhouse condition assessed as growth inhibition at 500 g /ha measured after 33 days; format: functional, organism-based
[24] = test system: Echinochloa oryzicola; experiment: Herbicidal activity against Echinochloa oryzicola grown in water-drained pot under greenhouse condition assessed as time duration of residual effect at 500 g /ha; format: functional
[25] = test system: Echinochloa oryzicola; experiment: Herbicidal activity against Echinochloa oryzicola under greenhouse condition assessed as time duration of residual effect at 500 g /ha; format: functional
[26] = test system: Echinochloa oryzicola; experiment: Herbicidal activity against Echinochloa oryzicola under greenhouse condition assessed as growth inhibition at 125 g /ha measured after 27 days; format: functional, organism-based
[27] = test system: Echinochloa oryzicola; experiment: Herbicidal activity against Echinochloa oryzicola grown in water-drained pot under greenhouse condition assessed as growth inhibition at 500 g /ha measured after 6 days; format: functional, organism-based
[28] = test system: Echinochloa oryzicola; experiment: Herbicidal activity against Echinochloa oryzicola grown in water-drained pot under greenhouse condition assessed as growth inhibition at 125 g /ha measured after 27 days; format: functional, organism-based
[29] = test system: Echinochloa oryzicola; experiment: Herbicidal activity against Echinochloa oryzicola under greenhouse condition assessed as growth inhibition at 1000 g /ha measured after 33 days; format: functional, organism-based
[30] = test system: Echinochloa oryzicola; experiment: Herbicidal activity against Echinochloa oryzicola grown in water-drained pot under greenhouse condition assessed as growth inhibition at 250 g /ha measured after 33 days; format: functional, organism-based
[31] = test system: Echinochloa oryzicola; experiment: Herbicidal activity against Echinochloa oryzicola grown in water-drained pot under greenhouse condition assessed as growth inhibition at 1000 g /ha measured after 13 days; format: functional, organism-based
[32] = test system: Echinochloa oryzicola; experiment: Herbicidal activity against Echinochloa oryzicola under greenhouse condition assessed as growth inhibition at 250 g /ha measured after 6 days; format: functional, organism-based
[33] = test system: Echinochloa oryzicola; experiment: Herbicidal activity against Echinochloa oryzicola under greenhouse condition assessed as growth inhibition at 1000 g /ha measured after 20 days; format: functional, organism-based
[34] = test system: Echinochloa oryzicola; experiment: Herbicidal activity against Echinochloa oryzicola under greenhouse condition assessed as time duration of residual effect at 250 g /ha; format: functional
[35] = test system: Echinochloa oryzicola; experiment: Herbicidal activity against Echinochloa oryzicola under greenhouse condition assessed as growth inhibition at 1000 g /ha measured after 6 days; format: functional, organism-based
[36] = test system: Echinochloa oryzicola; experiment: Herbicidal activity against Echinochloa oryzicola grown in water-drained pot under greenhouse condition assessed as time duration of residual effect at 250 g /ha; format: functional
[37] = test system: Echinochloa oryzicola; experiment: Herbicidal activity against Echinochloa oryzicola grown in water-drained pot under greenhouse condition assessed as growth inhibition at 250 g /ha measured after 27 days; format: functional, organism-based
[38] = test system: Echinochloa oryzicola; experiment: Herbicidal activity against Echinochloa oryzicola grown in water-drained pot under greenhouse condition assessed as growth inhibition at 250 g /ha measured after 42 days; format: functional, organism-based
[39] = test system: Echinochloa oryzicola; experiment: Herbicidal activity against Echinochloa oryzicola under greenhouse condition assessed as growth inhibition at 250 g /ha measured after 33 days; format: functional, organism-based
[40] = test system: Echinochloa oryzicola; experiment: Herbicidal activity against Echinochloa oryzicola under greenhouse condition assessed as growth inhibition at 250 g /ha measured after 27 days; format: functional, organism-based
[41] = test system: Echinochloa oryzicola; experiment: Herbicidal activity against Echinochloa oryzicola under greenhouse condition assessed as growth inhibition at 250 g /ha measured after 20 days; format: functional, organism-based
[42] = test system: Echinochloa oryzicola; experiment: Herbicidal activity against Echinochloa oryzicola under greenhouse condition assessed as growth inhibition at 1000 g /ha measured after 42 days; format: functional, organism-based
[43] = test system: Echinochloa oryzicola; experiment: Herbicidal activity against Echinochloa oryzicola grown in water-drained pot under greenhouse condition assessed as growth inhibition at 1000 g /ha measured after 6 days; format: functional, organism-based
[44] = test system: Echinochloa oryzicola; experiment: Herbicidal activity against Echinochloa oryzicola grown in water-drained pot under greenhouse condition assessed as time duration of residual effect at 1000 g /ha; format: functional
[45] = test system: Echinochloa oryzicola; experiment: Herbicidal activity against Echinochloa oryzicola under greenhouse condition assessed as growth inhibition at 1000 g /ha measured after 27 days; format: functional, organism-based
[46] = test system: Echinochloa oryzicola; experiment: Herbicidal activity against Echinochloa oryzicola grown in water-drained pot under greenhouse condition assessed as growth inhibition at 250 g /ha measured after 6 days; format: functional, organism-based
[47] = test system: Echinochloa oryzicola; experiment: Herbicidal activity against Echinochloa oryzicola under greenhouse condition assessed as growth inhibition at 1000 g /ha measured after 13 days; format: functional, organism-based
[48] = test system: Echinochloa oryzicola; experiment: Herbicidal activity against Echinochloa oryzicola under greenhouse condition assessed as growth inhibition at 250 g /ha measured after 13 days; format: functional, organism-based
[49] = test system: Echinochloa oryzicola; experiment: Herbicidal activity against Echinochloa oryzicola grown in water-drained pot under greenhouse condition assessed as growth inhibition at 1000 g /ha measured after 20 days; format: functional, organism-based
[50] = test system: Echinochloa oryzicola; experiment: Herbicidal activity against Echinochloa oryzicola under greenhouse condition assessed as growth inhibition at 250 g /ha measured after 42 days; format: functional, organism-based
[51] = test system: Echinochloa oryzicola; experiment: Herbicidal activity against Echinochloa oryzicola grown in water-drained pot under greenhouse condition assessed as growth inhibition at 250 g /ha measured after 13 days; format: functional, organism-based
[52] = test system: Echinochloa oryzicola; experiment: Herbicidal activity against Echinochloa oryzicola under greenhouse condition assessed as time duration of residual effect at 1000 g /ha; format: functional
[53] = test system: Echinochloa oryzicola; experiment: Herbicidal activity against Echinochloa oryzicola grown in water-drained pot under greenhouse condition assessed as growth inhibition at 250 g /ha measured after 20 days; format: functional, organism-based
[54] = test system: Echinochloa oryzicola; experiment: Herbicidal activity against Echinochloa oryzicola grown in water-drained pot under greenhouse condition assessed as growth inhibition at 1000 g /ha measured after 42 days; format: functional, organism-based
[55] = test system: Echinochloa oryzicola; experiment: Herbicidal activity against Echinochloa oryzicola grown in water-drained pot under greenhouse condition assessed as growth inhibition at 1000 g /ha measured after 27 days; format: functional, organism-based
[56] = test system: Echinochloa oryzicola; experiment: Herbicidal activity against Echinochloa oryzicola grown in water-drained pot under greenhouse condition assessed as growth inhibition at 1000 g /ha measured after 33 days; format: functional, organism-based

CCCOCCN(C(=O)CCl)c1c(CC)cccc1CC [PRETILACHLOR]
growth inhibition (GI) [1]: Active | growth inhibition (GI) [2]: Active | growth inhibition (GI) [3]: Active | growth inhibition (GI) [4]: inactive | growth inhibition (GI) [5]: inactive | growth inhibition (GI) [6]: inactive | growth inhibition (GI) [7]: inactive | growth inhibition (GI) [8]: inactive | growth inhibition (GI) [9]: inactive | growth inhibition (GI) [10]: Active | growth inhibition (GI) [11]: inactive | growth inhibition (GI) [12]: Active | growth inhibition (GI) [13]: Active | growth inhibition (GI) [14]: Active | growth inhibition (GI) [15]: Active | growth inhibition (GI) [16]: Active | growth inhibition (GI) [17]: Active | growth inhibition (GI) [18]: Active | Time [19]: 6 days | Time [20]: 13 days | growth inhibition (GI) [21]: Active | growth inhibition (GI) [22]: Active | growth inhibition (GI) [23]: Active | Time [24]: 16 days | Time [25]: 27 days | growth inhibition (GI) [26]: inactive | growth inhibition (GI) [27]: Active | growth inhibition (GI) [28]: inactive

CN(C(=O)COc1nc2ccccc2s1)c1ccccc1 [MEFENACET]
growth inhibition (GI) [29]: Active | growth inhibition (GI) [30]: inactive | growth inhibition (GI) [31]: Active | growth inhibition (GI) [32]: Active | growth inhibition (GI) [33]: Active | Time [34]: 13 days | growth inhibition (GI) [35]: Active | Time [36]: 13 days | growth inhibition (GI) [37]: inactive | growth inhibition (GI) [38]: inactive | growth inhibition (GI) [39]: inactive | growth inhibition (GI) [40]: inactive | growth inhibition (GI) [41]: Active | growth inhibition (GI) [42]: Active | growth inhibition (GI) [43]: Active | Time [44]: 33 days | growth inhibition (GI) [45]: Active | growth inhibition (GI) [46]: Active | growth inhibition (GI) [47]: Active | growth inhibition (GI) [48]: Active | growth inhibition (GI) [49]: Active | growth inhibition (GI) [50]: inactive | growth inhibition (GI) [51]: Active | Time [52]: 33 days | growth inhibition (GI) [53]: inactive | growth inhibition (GI) [54]: Active | growth inhibition (GI) [55]: Active | growth inhibition (GI) [56]: Active
